Data from patent US6960584B2 (Merck & Co., Inc., priority 2001, dated 2005).

Columns and labels:
Format in all cases: biochemical
PKC (mix of isoforms) = assay: PKC assay (counter screen); conditions: myelin basic protein substrate; read-out: Counter screens IC50 (μM) PKC
Method: Final assay concentrations were as follows: 0.25 mM EGTA, 0.4 mM CaCl, 20 mM Tris pH 7.5, 10 mM MgCl, 1 mM 2-mercaptoethanol, 0.32 mg/ml phosphatidylserine, 0.032 mg/ml diacylglycerol, 10 μM ^33P-ATP, 70 μg/ml MBP, 10 ng/ml PKC, 0.1 mg/ml BSA.
Assays are performed using 96 deep well assay plates. In each assay well 10 μl of solvent control or appropriate inhibitor dilution with 5 μl ^33P-ATP (components #5 and #3) were premixed. In a separate tube, a mixture containing equal volumes of components #1, #2, #4, and #6 was prepared. The assay reaction was initiated by adding 35 μl of the components #1, #2, #4, and #6 mixture to wells containing ^33P-ATP and inhibitor. The liquid in the assay wells was thoroughly mixed and the assay reactions incubated for 20 minutes at room temperature. The reactions were stopped by adding 100 mM EDTA (50 μl) and 100 mM sodium pyrophosphate (50 μl) and mixing. Phosphorylated MBP was collected on PVDF membranes in 96 well filter plates and quantitated by scintillation counting.

delta PH-Akt1 = molecular target: T1, delta PH-Akt1 (Homo sapiens, UniProt P31749); assay: Akt kinase assay, phosphorylation of GSK3-derived peptide
T1 construct: PCR deletion mutagenesis was done using the full length Akt1 gene in the pS2neo vector as template; biotin tag (from pS2neo vector); made in house; host or cells: Drosophila S2 cells
T1 sequence (P31749 with tags, fused parts or gaps): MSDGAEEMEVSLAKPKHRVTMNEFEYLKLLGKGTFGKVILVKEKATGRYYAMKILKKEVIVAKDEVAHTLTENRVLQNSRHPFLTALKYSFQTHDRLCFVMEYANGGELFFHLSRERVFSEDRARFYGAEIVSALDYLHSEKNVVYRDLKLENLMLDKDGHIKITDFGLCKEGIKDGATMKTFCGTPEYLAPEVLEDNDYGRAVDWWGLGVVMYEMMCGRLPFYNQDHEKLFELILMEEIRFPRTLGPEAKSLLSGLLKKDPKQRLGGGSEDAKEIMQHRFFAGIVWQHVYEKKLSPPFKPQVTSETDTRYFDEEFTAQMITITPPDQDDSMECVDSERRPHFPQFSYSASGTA
Method: For the expression of a pleckstrin homology domain (PH) deleted (Δ aa 4-129, which includes deletion of a portion of the Akt1 hinge region) version of Akt1, PCR deletion mutagenesis was done using the full length Akt1 gene in the pS2neo vector as template. The PCR was carried out in 2 steps using overlapping internal primers (5′[…]Δ[…] 3′ (SEQ.ID.NO.: 6), and 5′[…]Δ[…] TATTC 3′ (SEQ.ID.NO.: 7)) which encompassed the deletion and 5′ and 3′ flanking primers which encompassed the KpnI site and middle T tag on the 5′ end. The final PCR product was digested with KpnI and SmaI and ligated into the pS2neo full length Akt1 KpnI/Sma I cut vector, effectively replacing the 5′ end of the clone with the deleted version.
This procedure describes a kinase assay which measures phosphorylation of a biotinylated GSK3-derived peptide by human recombinant active Akt/PBK isoforms or Akt/PBK mutants. The ^33P-labeled biotinylated product can be captured and detected using Streptavidin coated Flashplates (NEN LifeSciences) or Streptavidin Membrane Filter Plates (Promega). Alternatively, a GSK3-derived peptide with 2 added lysine residues was used as the substrate and subsequently captured using Phosphocellulose Membrane Filter Plates (Polyfiltronics). […]
(§1) The plates were covered with sealing tape and counted using the Packard TopCount with the appropriate settings for counting [^33P] in Flashplates. […]

Akt2 = molecular target: T2, Akt2 (Homo sapiens, UniProt P31751); assay: as above
T2 construct: a middle T tag was added to the 5′ end of the full length Akt2 using the PCR primer; biotin tag (from pS2neo vector); made in house; host or cells: Drosophila S2 cells
T2 sequence (P31751 whole entry): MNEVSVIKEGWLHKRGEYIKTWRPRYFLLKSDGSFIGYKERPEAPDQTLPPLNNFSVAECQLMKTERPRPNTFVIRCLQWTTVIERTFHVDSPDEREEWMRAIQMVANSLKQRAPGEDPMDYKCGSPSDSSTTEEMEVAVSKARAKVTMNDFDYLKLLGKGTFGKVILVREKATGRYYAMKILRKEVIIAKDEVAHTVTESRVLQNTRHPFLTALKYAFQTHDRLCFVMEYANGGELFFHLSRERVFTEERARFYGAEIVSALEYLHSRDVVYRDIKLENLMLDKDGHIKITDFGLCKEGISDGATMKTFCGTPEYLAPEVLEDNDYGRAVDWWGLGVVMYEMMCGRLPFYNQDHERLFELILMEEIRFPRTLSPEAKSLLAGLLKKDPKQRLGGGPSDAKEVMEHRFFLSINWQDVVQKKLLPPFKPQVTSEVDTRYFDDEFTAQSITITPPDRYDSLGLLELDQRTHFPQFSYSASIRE
Text: (§2) This procedure describes a kinase assay which measures phosphorylation of a biotinylated GSK3-derived peptide by human recombinant active Akt/PBK isoforms or Akt/PBK mutants. The ^33P-labeled biotinylated product can be captured and detected using Streptavidin coated Flashplates (NEN LifeSciences) or Streptavidin Membrane Filter Plates (Promega). Alternatively, a GSK3-derived peptide with 2 added lysine residues was used as the substrate and subsequently captured using Phosphocellulose Membrane Filter Plates (Polyfiltronics).
(§3) Active human Akt: The following active human Akt isoforms were utilized in the in vitro assays: active human Akt1 (obtained from Upstate Biotechnology, catalog no. 14-276, 15 μg/37 μl (6.76 μM)) or recombinant lipid activated Akt1 (prepared as described in Example 5); Akt2 (prepared as described in Example 5); Akt3 (prepared as described in Example 5); and delta PH-Akt1 (prepared as described in Example 5).
(§4) Akt specific peptide substrate: GSK3α (S21) Peptide #3928, biotin-[…] (SEQ.ID.NO.: 15), FW=1517.8 (obtained from Macromolecular Resources) for Streptavidin Flashplate or Streptavidin Filter Plate detection.
(§5) GSK3α (S21) Peptide #G80613, […] (SEQ.ID.NO.: 14), FW=1547.8 (obtained from Research Genetics) for Phosphocellulose filter plate detection.
(§6) • B. Active Akt (500 nM): Diluent (1× Assay buffer, 10% glycerol, 0.1% β-mercaptoethanol, 1.0 μM microcystin LR and 1.0 mM EDTA) was added to a vial containing 37 μl of active Akt isoform (6.76 μM). Aliquots were flash frozen in liquid N2 and stored at −70° C. • C. […] Procedure for Streptavidin Flash Plate Assay: Step 1: […]
as §1
(§7) The bottom of the plate was sealed with white backing tape, 30 μl/well of Microscint 20 (Packard Instruments, catalog no. 6013621) was added. The top of the plate was sealed with clear sealing tape, and the plate then counted using the Packard TopCount with the appropriate settings for [^33P] with liquid scintillant. […]

Akt3 = molecular target: T3, Akt3 (Homo sapiens, UniProt Q9Y243); assay: as above
T3 construct: a middle T tag was added to the 5′ end of the full length Akt3 clone using the PCR primer; biotin tag (from pS2neo vector); made in house; host or cells: Drosophila S2 cells
T3 sequence (Q9Y243 whole entry): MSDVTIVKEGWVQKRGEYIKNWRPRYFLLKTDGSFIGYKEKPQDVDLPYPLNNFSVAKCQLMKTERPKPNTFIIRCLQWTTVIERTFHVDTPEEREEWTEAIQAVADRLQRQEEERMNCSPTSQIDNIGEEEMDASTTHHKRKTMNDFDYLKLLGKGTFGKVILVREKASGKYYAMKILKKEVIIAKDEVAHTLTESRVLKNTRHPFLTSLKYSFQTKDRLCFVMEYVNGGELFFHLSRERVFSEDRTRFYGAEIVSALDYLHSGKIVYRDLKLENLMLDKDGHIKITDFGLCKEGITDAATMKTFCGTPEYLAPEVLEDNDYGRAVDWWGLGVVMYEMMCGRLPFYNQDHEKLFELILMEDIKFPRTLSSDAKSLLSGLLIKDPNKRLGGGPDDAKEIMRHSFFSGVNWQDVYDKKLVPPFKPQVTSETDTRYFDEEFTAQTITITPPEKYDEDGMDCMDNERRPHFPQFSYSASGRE
Text: as §2, §3, §4, §5, §6, §1, §7

active human Akt1 = molecular target: T4, active human Akt1 (Homo sapiens, UniProt P31749); assay: as above; conditions: GSK3 peptide substrate; read-out: GSK3 Peptide Substrate IC50 (μM) Akt-1
T4 construct: purchased Upstate Biotechnology 14-276
T4 sequence (P31749 whole entry): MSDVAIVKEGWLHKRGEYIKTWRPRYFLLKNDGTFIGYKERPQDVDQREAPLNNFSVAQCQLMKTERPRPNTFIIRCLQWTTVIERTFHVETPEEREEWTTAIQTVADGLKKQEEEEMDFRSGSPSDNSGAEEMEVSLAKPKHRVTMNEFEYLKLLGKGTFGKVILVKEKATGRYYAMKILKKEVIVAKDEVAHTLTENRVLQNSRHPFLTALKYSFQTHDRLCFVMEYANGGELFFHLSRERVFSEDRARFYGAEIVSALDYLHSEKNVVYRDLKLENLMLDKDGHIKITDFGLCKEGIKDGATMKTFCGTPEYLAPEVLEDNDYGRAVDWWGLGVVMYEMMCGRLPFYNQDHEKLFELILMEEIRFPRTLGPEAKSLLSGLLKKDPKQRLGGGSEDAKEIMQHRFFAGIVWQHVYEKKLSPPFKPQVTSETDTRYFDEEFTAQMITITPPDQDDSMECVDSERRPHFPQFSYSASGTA
Text: as §2, §3, §4, §5, §6, §1, §7

PKA catalytic subunit = molecular target: T5, PKA catalytic subunit (Bos taurus, UniProt P00517); assay: PKA assay (counter screen)
T5 construct: purchased UBI (Upstate Biotechnology) 14-114
Method: Each individual PKA assay consists of the following components: • 1) 10 μl 5×PKA assay buffer (200 mM Tris pH7.5, 100 mM MgCl2, 5 mM 2-mercaptoethanol, 0.5 mM EDTA) • 2) 10 μl of a 50 μM stock of Kemptide (Sigma) diluted into water • 3) 10 μl ^33P-ATP (prepared by diluting 1.0 μl ^33P-ATP [10 mCi/ml] into 200 μl of a 50 μM stock of unlabeled ATP) • 4) 10 μl appropriate solvent control dilution or inhibitor dilution • 5) 10 μl of a 70 nM stock of PKA catalytic subunit (UBI catalog #14-114) diluted in 0.5 mg/ml BSA
The final assay concentrations were 40 mM Tris pH 7.5, 20 mM MgCl2, 1 mM 2-mercaptoethanol, 0.1 mM EDTA, 10 μM Kemptide, 10 μM ^33P-ATP, 14 nM PKA and 0.1 mg/ml BSA.
Assays were assembled in 96 deep-well assay plates. Components #3 and #4 were premixed and in a separate tube, a mixture containing equal volumes of components #1, #2, and #5 was prepared. The assay reaction was initiated by adding 30 μl of the components #1, #2, and #5 mixture to wells containing ^33P-ATP and inhibitor. The liquid in the assay wells was mixed and the assay reactions incubated for 20 minutes at room temperature. […]
The enzyme reaction product (phosphorylated Kemptide) was quantitated using p81 phosphocellulose 96 well filter plates (Millipore). […] 30 μl scintillation fluid was added to each well and the filters counted on a TopCount (Packard).

Compound | IC50 (PKC (mix of isoforms)) [µM] | IC50 (delta PH-Akt1) [µM] | IC50 (Akt2) [µM] | IC50 (Akt3) [µM] | IC50 (active human Akt1) [µM] | IC50 (PKA catalytic subunit) [µM]
OCCOc1nn2c(-c3ccccc3)nnc2cc1-c1ccccc1 [Compound 1, 6-(2-Hydroxyethyl)oxy-3,7-diphenyl-[1,2,4]triazolo[4,3-b]pyridazine] | > 40 | – | – | – | – | –
OCCCCOc1nn2c(-c3ccccc3)nnc2cc1-c1ccccc1 [Compound 2] | > 40 | > 50 | > 50 | > 50 | 4.65 | > 40
